Measured values taken from patent US20250361241A1, “HPK1 INHIBITOR AND MEDICAL USE THEREOF” (Betta Pharmaceuticals Co., Ltd., priority 2022, published 2025).

Target: HPK1 (Homo sapiens (Human), UniProt Q92918)
Test: HPK1 enzyme activity detection (1 mM ATP system), ADP-Glo with MBP substrate, Pharmacological Experiment 2
Assay type: biochemical
Description: Pharmacological Experiment 2: […] The test compound was serially diluted using DMSO to 200 times the detection concentration. […] Centrifuge at 1000×g for 30 seconds and incubate at 25° C. for 15 minutes. • (5) Adding ATP and substrate: Add 2 μL of 2×ATP-MBP solution to the 384-well plate and centrifuge at 1000×g for 30 seconds. Seal the plate with a sealing film and incubate at 25° C. for 60 minutes. • (6) Add ADP-Glo reagent: Add 4 μL ADP-Glo reagent (Promega, V9103) to the 384-well plate, centrifuge at 1000×g for 30 seconds, and incubate at 25° C. for 60 minutes. • (7) Detection of luminescent signal; Add 8 μL of luminescent detection reagent (Promega, V9103) to a 384-well plate, centrifuge at 1000×g for 30 seconds, and incubate at 25° C. for 60 minutes. The chemiluminescent signal was read using a BMG instrument. • (8) Calculation of percentage inhibition rate: […] See Table 2 for the enzymatic IC 50 data of the example compounds on HPK1.

Sequence of HPK1 (Q92918 whole entry, species assumed): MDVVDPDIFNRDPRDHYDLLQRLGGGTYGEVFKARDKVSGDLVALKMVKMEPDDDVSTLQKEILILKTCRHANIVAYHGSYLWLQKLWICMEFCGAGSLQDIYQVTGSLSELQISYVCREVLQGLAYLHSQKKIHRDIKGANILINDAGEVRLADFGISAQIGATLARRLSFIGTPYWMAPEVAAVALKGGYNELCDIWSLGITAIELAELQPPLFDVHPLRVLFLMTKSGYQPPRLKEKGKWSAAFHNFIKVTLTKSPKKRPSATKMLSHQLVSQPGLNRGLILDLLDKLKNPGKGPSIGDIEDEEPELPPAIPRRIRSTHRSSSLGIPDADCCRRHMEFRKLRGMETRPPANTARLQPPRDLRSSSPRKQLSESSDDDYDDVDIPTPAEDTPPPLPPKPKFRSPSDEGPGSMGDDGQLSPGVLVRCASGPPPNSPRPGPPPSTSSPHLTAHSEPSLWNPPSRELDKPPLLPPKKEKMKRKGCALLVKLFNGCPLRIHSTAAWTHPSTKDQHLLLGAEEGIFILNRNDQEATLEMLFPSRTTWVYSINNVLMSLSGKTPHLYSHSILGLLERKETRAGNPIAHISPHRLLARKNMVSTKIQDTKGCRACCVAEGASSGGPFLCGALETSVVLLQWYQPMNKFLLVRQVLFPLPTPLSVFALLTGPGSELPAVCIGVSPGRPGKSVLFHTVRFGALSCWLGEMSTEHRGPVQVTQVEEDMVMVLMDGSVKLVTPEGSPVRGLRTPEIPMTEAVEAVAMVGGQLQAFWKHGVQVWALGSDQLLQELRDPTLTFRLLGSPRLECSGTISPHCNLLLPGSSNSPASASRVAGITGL

IC50 [µM] | Compound
0.00127 | Cc1cc(Nc2ccc(-c3cnc4cc(F)ccn34)c3c2C(=O)NC3)nc2c1C1(CCOCC1)C[C@H]2N(C)C [Compound 28, (R)-7-((7-(DIMETHYLAMINO)-4-METHYL-2′,3′,5′,6,6′,7-HEXAHYDROSPIRO[B]PYRIDIN-5,4′-PYRAN]-2-YL)AMINO)-4-(7-FLUOROIMIDAZO[1,2-A]PYRIDIN-3-YL)ISOINDOLIN-1-ONE]
0.0487 | C[C@@H]1CN(C2CC3(CCOCC3)c3ccc(Nc4ccc(-c5cnc6cc(F)ccn56)c5c4C(=O)NC5)nc32)C[C@@H](C)O1 (stereo partly drawn) [Compound 112]
0.171 | O=C1NCc2c(-c3cnc4cc(F)ccn34)ccc(Nc3ccc4c(n3)C(N3CCNCC3)CC43CCOCC3)c21 (stereo not drawn) [Compound 99]
0.0725 | CC1(C)CN(C2CC3(CCOCC3)c3ccc(Nc4ccc(-c5cnc6cc(F)ccn56)c5c4C(=O)NC5)nc32)CCO1 (stereo not drawn) [Compound 96]
0.0387 | C#CCN1Cc2nc(Nc3ccc(-c4cnc5cc(F)ccn45)c4c3C(=O)NC4)ccc2C2(CCOCC2)C1 [Compound 156]
0.00452 | CC(C)NC1CC2(CCOCC2)c2ccc(Nc3ccc(-c4cnc5cc(Cl)ccn45)c4c3C(=O)NC4)nc21 (stereo not drawn) [Compound 142]
0.00688 | COc1ccn2c(-c3ccc(Nc4ccc5c(n4)C(N(C)C)CC54CCOCC4)c4c3CNC4=O)cnc2c1 (stereo not drawn) [Compound 170]
0.0075 | C[C@H]1CN(C2CC3(CCOCC3)c3ccc(Nc4ccc(-c5cnc6cc(F)ccn56)c5c4C(=O)NC5)nc32)CCO1 (stereo partly drawn) [Compound 97]
0.00621 | C[C@@H]1CN(C2CC3(CCOCC3)c3ccc(Nc4ccc(-c5cnc6cc(F)ccn56)c5c4C(=O)NC5)nc32)C[C@H](C)O1 (stereo partly drawn) [Compound 113]
0.00636 | CC1(O)CCN(C2CC3(CCOCC3)c3ccc(Nc4ccc(-c5cnc6cc(F)ccn56)c5c4C(=O)NC5)nc32)CC1 (stereo not drawn) [Compound 95]
0.00422 | Cc1cc(Nc2cnc(-c3ccnc4c3ccn4C)c3c2C(=O)NC3)nc2c1C1(CCOCC1)CC2N(C)C (stereo not drawn) [Compound 30]
0.243 | C#CCN1Cc2nc(Nc3ccc(-c4cnc5cc(F)ccn45)c4c3C(=O)NC4)ccc2C2(CCOCC2)C1 [Compound 155]
0.0711 | O=C1NCc2c(-c3cnc4cc(F)ccn34)ccc(Nc3ccc4c(n3)C(NCC(F)(F)F)CC43CCOCC3)c21 (stereo not drawn) [Compound 118]
0.0218 | COc1ccn2c(-c3ccc(Nc4ccc5c(n4)CCCC54CCOCC4)c4c3CNC4=O)cnc2c1 [Compound 148]
0.0144 | O=C1N=Cc2c(-c3cnc4cc(Cl)ccn34)ccc(Nc3ccc4c(n3)CNCC43CC3)c21 [Compound 152, 4-(7-CHLOROIMIDAZO[1,2-A]PYRIDIN-3-YL)-7-((7′,8′-DIHYDRO-6′H-SPIRO[CYCLOPROPANE-1,5′-[1,7]NAPHTHYRIDINE]-2′-YL)AMINO)ISOINDOL-1-ONE]
0.00307 | CC(C)CNC1CC2(CCOCC2)c2ccc(Nc3ccc(-c4cnc5cc(F)ccn45)c4c3C(=O)NC4)nc21 (stereo not drawn) [Compound 141]
0.0798 | O=C1NCc2c(-c3cnc4cc(F)ccn34)ccc(Nc3ccc4c(n3)C(N3CC5CCC(C3)O5)CC43CCOCC3)c21 (stereo not drawn) [Compound 116]
0.0304 | O=C1NCc2c(-c3cnc4cc(F)c(Cl)cn34)ccc(Nc3ccc4c(n3)CCCC43CCOCC3)c21 [Compound 150]
0.0752 | CC(=O)N1CCN(C2CC3(CCOCC3)c3ccc(Nc4ccc(-c5cnc6cc(F)ccn56)c5c4C(=O)NC5)nc32)CC1 (stereo not drawn) [Compound 92]
0.00351 | O=C1NCc2c(-c3cnc4cc(F)ccn34)ccc(Nc3ccc4c(n3)C(N3C[C@H]5C[C@@H]3CO5)CC43CCOCC3)c21 (stereo partly drawn) [Compound 143]
0.0381 | CC(=O)N1Cc2nc(Nc3ccc(-c4cnc5cc(F)ccn45)c4c3C(=O)NC4)ccc2C2(CCCCC2)C1 [Compound 145]

The remaining lines, values behind:

Compound | IC50 [µM]
CN(C)C1CC2(CCOCC2)c2ccc(Nc3ccc(-c4cnc5cc(O)ccn45)c4c3C(=O)NC4)nc21 (stereo not drawn) [Compound 171] | 0.035
CN(CC(F)F)C1CC2(CCOCC2)c2ccc(Nc3ccc(-c4cnc5cc(F)ccn45)c4c3C(=O)NC4)nc21 (stereo not drawn) [Compound 114] | 0.0925
O=C1NCc2c(-c3cnc4cc(OC(F)F)ccn34)ccc(Nc3ccc4c(n3)C(N3CCOCC3)CC43CCOCC3)c21 (stereo not drawn) [Compound 177, 4-(7-(DIFLUOROMETHOXY)IMIDAZO[1,2-A]PYRIDIN-3-YL)-7-((7-MORPHOLINE-2′,3′,5′,6,6′,7-HEXAHVDROSPIRO[B]PYRIDIN-54′-PYRAN]-2-YL)AMINO)ISOINDOL-1-ONE] | 0.102
CN1Cc2nc(Nc3ccc(-c4cnc5cc(F)ccn45)c4c3C(=O)NC4)ccc2C2(CCOCC2)C1 [Compound 100, 4-(7-FLUOROIMIDAZO[1,2-A]PYRIDIN-3-YL)-7-((7′-(METHYL-D3)-2,3,5,6,7′,8′-HEXAHYDRO-6′H-SPIRO[PYRAN-4,5′-[1,7]NAPHTHYRIDINE]-2′-YL)AMINO)ISOINDOL-1-ONE] | 0.0031
O=C1NCc2c(-c3cnc4cc(OC(F)F)ccn34)ccc(Nc3ccc4c(n3)C(N3CCC(F)CC3)CC43CCOCC3)c21 (stereo not drawn) [Compound 176] | 0.0121
CN(C)C1CCC2(CCOCC2)c2ccc(Nc3ccc(-c4cnn5cccnc45)c4c3C(=O)NC4)nc21 (stereo not drawn) [Compound 45] | 0.00308
O=C1NCc2c(-c3cnc4cc(F)ccn34)ccc(Nc3ccc4c(n3)C(N3CCOC5(CC5)C3)CC43CCOCC3)c21 (stereo not drawn) [Compound 111] | 0.0302
CN(C)C1CC2(CCOCC2)c2ccc(Nc3ccc(-c4cnc5n4CCCC5)c4c3C(=O)NC4)nc21 (stereo not drawn) [Compound 166, 7-((7-(DIMETHYLAMINO)-2′,3′,5′,6,6′,7-HEXAHYDROSPIRO[CYCLOPENTANE[B]PYRIDINE-5,4′-PYRAN]-2-YL)AMINO)-4-(5,6,7,8-TETRAHYDROIMIDAZO[1,2-A]PYRIDIN-3-YL)ISOINDOL-1-ONE] | 0.0257
CN(C)C1CC2(CCOCC2)c2ccc(Nc3ccc(-c4cnc5cc(OC(F)(F)F)ccn45)c4c3C(=O)NC4)nc21 (stereo not drawn) [Compound 175] | 0.0168
O=C1NCc2c(-c3cnc4cc(F)ccn34)ccc(Nc3ccc4c(n3)C(N3CCC(F)(F)C3)CC43CCOCC3)c21 (stereo not drawn) [Compound 72, 7-((7-(3,3-DIFLUOROPYRROLIDIN-1-YL)-2′,3′,5′6,6′,7-HEXAHYDROSPIRO[B]PYRIDINE-5,4′-PYRAN]-2-YL)AMINO)-4-(7-FLUOROIMIDAZOLE[1,2-A]PYRIDIN-3-YL)ISOINDOL-1-ONE] | 0.143
CC(C)c1ccn2c(-c3ccc(Nc4ccc5c(n4)C(N(C)C)CC54CCOCC4)c4c3CNC4=O)cnc2c1 (stereo not drawn) [Compound 163, 7-((7-(DIMETHYLAMINO)-2′,3′,5′,6,6′,7-HEXAHYDROSPIRO[CYCLOPENTANE[B]PYRIDINE-5,4′-PYRAN]-2-YL)AMINO)-4-(7-ISOPROPYLIMIDAZO[1,2-A]PYRIDIN-3-YL)ISOINDOL-1-ONE] | 0.0253
CN(C)C1CC2(CCOCC2)c2ccc(Nc3ccc(-c4cnc5ccc(F)cn45)c4c3C(=O)NC4)nc21 (stereo not drawn) [Compound 162] | 0.0186
CN(C)C1CCC2(CCOCC2)c2ccc(Nc3ccc(-c4cnc5cc(Cl)ccn45)c4c3C(=O)NC4)nc21 (stereo not drawn) [Compound 31] | 0.00453
7-((2,3,5,6,7′,8′-HEXAHYDRO-6′-H-PYRANO[4,5′-[1,7]NAPHTHYRIDINE]-2′-YL)AMINO)-4-(7-(TRIFLUOROMETHYL)IMIDAZO[1,2-A]PYRIDIN-3-YL)ISOINDOL-1-ONE [Compound 147] | 0.022
4-(8-FLUORO-7-METHYLIMIDAZO[1,2-A]PYRIDIN-3-YL)-7-((2,3,5,6,7′,8′-HEXAHYDRO-6′H-SPIRO[PYRAN-4, 5′-[1,7]NAPHTHYRIDINE]-2′-YL)AMINO)ISOINDOL-1-ONE [Compound 149] | 0.00442
